System: Non-GCB DLBCL PDX models
Assay: Compound 1 efficacy (TGI) in non-GCB DLBCL PDX models by EBV status
Assay type: in vivo, mice
Details: p.o. 7.5 mg/kg BID
Excerpt: DLBCL patient-derived xenografted (PDX) models were established in immunodeficient NCG (NOD-Prkdcem26Cd52Il2rgem26Cd22/NjuCrl) mice. These models were classified into GCB and non-GCB subgroups based on immunohistochemistry (IHC) staining using Hans algorithm. Non-GCB DLBCL PDX models were classified into Epstein-Barr virus (EBV) negative and EBV positive subgroups. For efficacy studies, tumor tissues were inoculated subcutaneously into NCG mice. When tumors reached 100˜200 mm^3, mice were randomized into each group with 7˜10 mice/group based on tumor volume. Compound 1 was formulated with 0.5% methyl cellulose as vehicle and treatment was started on the day of randomized grouping. Compound 1 was administrated p.o., 7.5 mg/(kg body weight), BID. Tumor volumes were measured twice weekly in two dimensions using a caliper, and the volume were expressed in mm^3 using the formula:
V=0.5(a×b^2) where a and b are the long and short diameters of the tumor, respectively.
Tumor growth inhibition (TGI) was calculated using the following formula:
% TGI=100×[1−(treatmentvt−treatmentv0)/(vehiclevt−Vehiclev0)]
Treatmentvt=tumor volume of treatment group at time t.
treatmentv0=tumor volume of treatment group at time of treatment started. […]
Average TGI of each model was used and represented as a dot point in the figure. P value was calculated using two tails t test to compare difference between groups.

C=CC(=O)N1CCC([C@@H]2CCNc3c(C(N)=O)c(-c4ccc(Oc5ccccc5)cc4)nn32)CC1 [Compound 1, (S)-7-(1-acryloylpiperidin-4-yl)-2-(4-phenoxyphenyl)-4,5,6,7-tetra-hydropyrazolo[1,5-a]pyrimidine-3-carboxamide]
TGI (mean±SD) (EBV negative non-GCB DLBCL models): 78.00±43.41%
TGI (mean±SD) (EBV positive non-GCB DLBCL models): 33.25±22.41%
